Data on 2 molecules can be found in patent US5910575A, “Immunoassay and monoclonal antibodies for urinary cortisol” (Immunotech, priority 1995, dated 1999).

The target of assay [1] is anti-cortisol monoclonal antibody Immu 473 (IMMU-473, CNCM I-1532), obtained against the immunogen cortisol-3-CMO (syn)-BSA. Kind of assay: Displacement of the cortisol-3-CMO (anti)-[125I] iodohistamine tracer from the monoclonal antibody (liquid phase radioimmunoassay). Type of assay: binding, mouse. The method, then:
(§1) Selection is carried out by a liquid phase radioimmunoassay technique starting with the culture supernatant. The supernatants possibly containing anti-cortisol antibodies are incubated with a solution of radioactive cortisol (tritiated cortisol or cortisol derivative labelled with radioactive iodine: cortisol-3-CMO (anti)-[^125 I] iodohistamine). If anti-cortisol antibodies are present, they will bind the radioactive steroid. After incubation with charcoal-dextran and centrifugation to remove the free radioactivity and all the small molecules not fixed to the antibodies, a sample of the supernatant (bound fraction) is removed and counted.
(§2) The affinities of the monoclonal antibodies are measured by displacement of the cortisol-3-CMO (anti)-[^125 I] iodohistamine tracer with the two labelling precursors: cortisol-3-CMO (anti)-histamine and cortisol-3-CMO (syn)-histamine. The affinity is estimated (in the form of the IC50 value) according to the concentration displacing half of the tracer, since the tracer is present in a small quantity compared with the other constituents.

Assay [2] deals with anti-cortisol monoclonal antibody Immu 482, obtained against the immunogen cortisol-3-CMO (syn)-BSA. The description is as above. The format is binding, mouse. The method, then: as §1, §2
[3] abbreviates: tracer cortisol-3-CMO (anti)-[125I] iodohistamine, concentration displacing half of the tracer.
[4] abbreviates: IC50 of cortisol-3-CMO (anti)-histamine divided by IC50 of cortisol-3-CMO (syn)-histamine.

As for `C[C@]12CC/C(=N\OCC(=O)NCCc3c[nH]cn3)C=C1CC[C@@H]1[C@@H]2[C@@H](O)C[C@@]2(C)[C@H]1CC[C@]2(O)C(=O)CO` [Cortisol-3-CMO (anti)-histamine, cortisol-3-carboxymethyloxime (anti)-histamine], the entries for the “Displacement of the tracer by Cortisol-3-CMO (anti)-histamine IC50” value in assay [1] (setting [3]) and in assay [2] (setting [3]) were 0.496 ng/mL and 0.468 ng/mL, respectively.
Consider `C[C@]12CC/C(=N/OCC(=O)NCCc3c[nH]cn3)C=C1CC[C@@H]1[C@@H]2[C@@H](O)C[C@@]2(C)[C@H]1CC[C@]2(O)C(=O)CO` [Cortisol-3-CMO (syn)-histamine, cortisol-3-carboxymethyloxime (syn)-histamine], for which the “Ratio IC50 anti/IC50 syn” value in assay [1] (setting [4]) is 2.73; in assay [2] (setting [4]), 2.66. The “Displacement of the tracer by Cortisol-3-CMO (syn)-histamine IC50” value is 0.182 ng/mL in assay [1] (setting [3]) and 0.176 ng/mL in assay [2] (setting [3]).
